The values below come from ChEMBL document CHEMBL5620431, “2,4-Diaryl-pyrimido[1,2-a]benzimidazole derivatives as novel anticancer agents endowed with potent anti-leukemia activity: Synthesis, biological evaluation and kinase profiling” (Eur J Med Chem, 2023).

One assay deals with BaF3. Nature of the assay: Antiproliferative activity against TEL-BMX transformed mouse BaF3 cells assessed as inhibition of cell proliferation.
The target of assay [1] is T1, Receptor-type tyrosine-protein kinase FLT3 (Homo sapiens, UniProt P36888).
T1 sequence (P36888 whole entry): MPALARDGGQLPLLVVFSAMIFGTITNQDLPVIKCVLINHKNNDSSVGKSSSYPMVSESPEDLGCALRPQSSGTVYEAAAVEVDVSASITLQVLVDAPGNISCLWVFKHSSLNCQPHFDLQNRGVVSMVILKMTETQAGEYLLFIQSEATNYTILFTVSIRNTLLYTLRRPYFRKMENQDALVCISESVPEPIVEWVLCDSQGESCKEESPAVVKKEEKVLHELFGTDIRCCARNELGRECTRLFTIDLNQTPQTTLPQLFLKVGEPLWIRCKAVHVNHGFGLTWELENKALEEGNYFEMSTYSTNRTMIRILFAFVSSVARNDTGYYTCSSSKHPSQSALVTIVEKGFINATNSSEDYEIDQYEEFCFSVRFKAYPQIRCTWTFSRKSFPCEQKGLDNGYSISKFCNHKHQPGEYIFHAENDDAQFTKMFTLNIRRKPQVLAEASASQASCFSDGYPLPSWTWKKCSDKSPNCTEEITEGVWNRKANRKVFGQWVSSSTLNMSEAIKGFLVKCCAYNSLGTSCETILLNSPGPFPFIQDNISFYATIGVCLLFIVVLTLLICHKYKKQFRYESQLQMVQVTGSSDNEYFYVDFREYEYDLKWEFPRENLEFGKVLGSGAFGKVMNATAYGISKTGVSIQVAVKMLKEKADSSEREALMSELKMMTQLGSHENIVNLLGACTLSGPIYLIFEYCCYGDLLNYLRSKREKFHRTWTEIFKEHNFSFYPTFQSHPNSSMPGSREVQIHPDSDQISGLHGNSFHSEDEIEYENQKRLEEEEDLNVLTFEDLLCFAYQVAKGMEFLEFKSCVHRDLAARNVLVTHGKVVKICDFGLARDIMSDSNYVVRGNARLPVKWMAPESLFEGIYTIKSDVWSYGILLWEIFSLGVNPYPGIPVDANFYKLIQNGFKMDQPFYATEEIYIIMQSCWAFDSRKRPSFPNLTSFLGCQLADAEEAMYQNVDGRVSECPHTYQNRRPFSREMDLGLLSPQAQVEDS
Nature of the assay: Inhibition of FLT3 (unknown origin).

Another assay concerns CCRF-CEM. The assay can be described thus: Antiproliferative activity against human CCRF-CEM cells assessed as cell growth inhibition incubated for 48 hrs by MTT assay. The class given is functional. For orientation: Tetrazolium assays rely on reduction of a dye to a coloured formazan, in cell work by metabolically active cells.

One may read the IC50 as the concentration that inhibits the measured activity by half. `C=CC(=O)Nc1cc(-n2c(=O)ccc3cnc4ccc(-c5ccc(NS(C)(=O)=O)cc5)cc4c32)ccc1C`: the concentration for half-maximal inhibition (IC50) in the assay with BaF3 was determined as 25 nM. In the case of `Cc1oncc1C(=O)Nc1ccc2[nH]c(-c3cc(N4CCOCC4)cc(C(F)(F)F)c3)nc2c1`, the midpoint of inhibition in assay [1], the IC50, lay at 495 nM. Broadly, the GI50 is the concentration that inhibits growth by half. As to `CCOC(=O)c1cnc2c(-c3nc4ccccc4s3)c(NC)nn2c1O`, the concentration for 50% growth inhibition (GI50) with CCRF-CEM worked out at 16300 nM.

Consider `Cc1oncc1C(=O)Nc1ccc2[nH]c(-c3cc(-n4cncc4C)cc(C(F)(F)F)c3)nc2c1`, for which the half-inhibitory concentration (IC50) in assay [1] came to 495 nM. On to `Cc1cn(-c2cc(-c3nc4cc(NC(=O)c5cnoc5C)ccc4[nH]3)cc(C(F)(F)F)c2)cn1`, for which it took 495 nM to reach half-maximal inhibition in assay [1] (IC50). For `Cc1oncc1C(=O)Nc1ccc2[nH]c(-c3cnn(-c4ccccc4)c3C(F)(F)F)nc2c1`, the IC50 in assay [1] amounted to 495 nM. Molecule `Cc1oncc1C(=O)Nc1ccc2[nH]c(-c3cc(-n4ccnc4C)cc(C(F)(F)F)c3)nc2c1` gave an IC50 in assay [1] of 495 nM.
